Laboratory results from patent US7008905B2, “Method of combating undesired plant growth on cereals” (BASF Aktiengesellschaft, priority 2000, dated 2006).

Assays:
Format in all cases: in vivo
[1] = system: Alopecurus myosuroides; experiment: Pre-emergence test, weed control; details: 3 weeks after treatment, rating 0-100 (100=death), Table 1
Outline: (§1)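 Using a 900 l/ha spray volume, test formulations are applied to newly sown soil at five rates from 15 to 240 g/ha. Each formulation is an acetone solution containing 0.4% w/w wetting agent, diluted with water; visual 0–100 ratings follow at three weeks.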

[2] = system: Apera spica-venti; experiment: Pre-emergence test, weed control; details: 3 weeks after treatment, rating 0-100 (100=death), Table 1
Outline: as §1

[3] = system: Galium aparine; experiment: Pre-emergence test, weed control; details: 3 weeks after treatment, rating 0-100 (100=death), Table 1
Outline: as §1

[4] = system: Lamium purpureum; experiment: Pre-emergence test, weed control; details: 3 weeks after treatment, rating 0-100 (100=death), Table 1
Outline: as §1

[5] = system: Lolium perenne; experiment: Pre-emergence test, weed control; details: 3 weeks after treatment, rating 0-100 (100=death), Table 1
Outline: as §1

[6] = system: Matricaria inodora; experiment: Pre-emergence test, weed control; details: 3 weeks after treatment, rating 0-100 (100=death), Table 1
Outline: as §1

[7] = system: Poa annua; experiment: Pre-emergence test, weed control; details: 3 weeks after treatment, rating 0-100 (100=death), Table 1
Outline: as §1

[8] = system: Polygonum convolvulus; experiment: Pre-emergence test, weed control; details: 3 weeks after treatment, rating 0-100 (100=death), Table 1
Outline: as §1

[9] = system: Setaria viridis; experiment: Pre-emergence test, weed control; details: 3 weeks after treatment, rating 0-100 (100=death), Table 1
Outline: as §1

[10] = system: Stellaria media; experiment: Pre-emergence test, weed control; details: 3 weeks after treatment, rating 0-100 (100=death), Table 1
Outline: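 Herbicidal effect was scored visually on a 0–100 scale (100 = death, 0 = untreated-like) three weeks after treatment. Soil was horticultural loam sprayed just after sowing with aqueous-diluted acetone/0.4% TRITON X-155 formulations at 15–240 g a.i./ha (900 L/ha).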

[11] = system: Veronica persica; experiment: Pre-emergence test, weed control; details: 3 weeks after treatment, rating 0-100 (100=death), Table 1
Outline: as §1

[12] = system: HORVW; experiment: Pre-emergence test, selectivity; details: 3 weeks after treatment, rating 0-100 (100=death), Table 2
Outline: as §1

[13] = system: Hordeum vulgare variety “Mammut”; experiment: Pre-emergence test, selectivity; details: 3 weeks after treatment, rating 0-100 (100=death), Table 2
Outline: as §1

[14] = system: Triticum aestivum variety “Kanzler”; experiment: Pre-emergence test, selectivity; details: 3 weeks after treatment, rating 0-100 (100=death), Table 2
Outline: as §1

[15] = system: Triticum aestivum variety “Monopol”; experiment: Pre-emergence test, selectivity; details: 3 weeks after treatment, rating 0-100 (100=death), Table 2
Outline: as §1

[16] = system: Galium aparine; experiment: Post-emergence test, weed control; details: 2–4 weeks after treatment, rating 0-100 (100=death), Table 5
Experimental: (§2) These acetone solutions are diluted with water and the resulting formulations applied at dosage levels equivalent of about 0.030 to 0.240 kg per hectare of test compound per pot. After spraying the plants are placed an greenhouse benches and are cared for in the usual manner, commensurate with conventional greenhouse practices. From 2 to 4 weeks after treatment, the seedling plants are examined and rated according to the rating system provided above. A rating 0 indicates growth as untreated control, a rating 100 indicates death.

[17] = system: Polygonum convolvulus; experiment: Post-emergence test, weed control; details: 2–4 weeks after treatment, rating 0-100 (100=death), Table 5
Experimental: as §2

[18] = system: Setaria viridis; experiment: Post-emergence test, weed control; details: 2–4 weeks after treatment, rating 0-100 (100=death), Table 5
Experimental: as §2

[19] = system: VIOAR; experiment: Post-emergence test, weed control; details: 2–4 weeks after treatment, rating 0-100 (100=death), Table 5
Experimental: as §2

FC(F)(F)c1ccc(-c2nccc(Oc3cccc(C(F)(F)F)c3)n2)cc1 [TTP, 4-(3-trifluoromethylphenoxy)-2-(4-trifluoromethyl-phenyl)-pyrimidine]
95: VIOAR weed control rating ([19]; 0.240 kg/ha)
93: GALAP weed control rating ([3]; 0.240 kg/ha) | GALAP weed control rating ([16]; 0.240 kg/ha) | SETVI weed control rating ([18]; 0.030 kg/ha)
35: POLCO weed control rating ([17]; 0.120 kg/ha)
3: TRZAWK rating (Selectivity) ([14]; 0.120 kg/ha)
70: LOLPE weed control rating ([5]; 0.015 kg/ha)
50: ALOMY weed control rating ([1]; 0.030 kg/ha) | GALAP weed control rating ([3]; 0.060 kg/ha) | HORVW rating (Selectivity) ([12]; 0.120 kg/ha)
100: ALOMY weed control rating ([1]; 0.120 kg/ha) | ALOMY weed control rating ([1]; 0.240 kg/ha) | APESV weed control rating ([2]; 0.015 kg/ha) | APESV weed control rating ([2]; 0.030 kg/ha) | APESV weed control rating ([2]; 0.060 kg/ha) | APESV weed control rating ([2]; 0.120 kg/ha) | APESV weed control rating ([2]; 0.240 kg/ha) | LAMPU weed control rating ([4]; 0.030 kg/ha) | LAMPU weed control rating ([4]; 0.060 kg/ha) | LAMPU weed control rating ([4]; 0.120 kg/ha) | LAMPU weed control rating ([4]; 0.240 kg/ha) | LOLPE weed control rating ([5]; 0.240 kg/ha) | MATIN weed control rating ([6]; 0.060 kg/ha) | MATIN weed control rating ([6]; 0.120 kg/ha) | MATIN weed control rating ([6]; 0.240 kg/ha) | POAAN weed control rating ([7]; 0.015 kg/ha) | POAAN weed control rating ([7]; 0.030 kg/ha) | POAAN weed control rating ([7]; 0.060 kg/ha) | POAAN weed control rating ([7]; 0.120 kg/ha) | POAAN weed control rating ([7]; 0.240 kg/ha) | POLCO weed control rating ([8]; 0.030 kg/ha) | POLCO weed control rating ([8]; 0.060 kg/ha) | POLCO weed control rating ([8]; 0.120 kg/ha) | POLCO weed control rating ([8]; 0.240 kg/ha) | SETVI weed control rating ([9]; 0.015 kg/ha) | SETVI weed control rating ([9]; 0.030 kg/ha) | SETVI weed control rating ([9]; 0.060 kg/ha) | SETVI weed control rating ([9]; 0.120 kg/ha) | SETVI weed control rating ([9]; 0.240 kg/ha) | STEME weed control rating ([10]; 0.060 kg/ha) | STEME weed control rating ([10]; 0.120 kg/ha) | STEME weed control rating ([10]; 0.240 kg/ha) | VERPE weed control rating ([11]; 0.015 kg/ha) | VERPE weed control rating ([11]; 0.030 kg/ha) | VERPE weed control rating ([11]; 0.060 kg/ha) | VERPE weed control rating ([11]; 0.120 kg/ha) | VERPE weed control rating ([11]; 0.240 kg/ha) | SETVI weed control rating ([18]; 0.240 kg/ha)
92: VIOAR weed control rating ([19]; 0.060 kg/ha) | VIOAR weed control rating ([19]; 0.120 kg/ha)
55: HORVW rating (Selectivity) ([12]; 0.240 kg/ha)
30: GALAP weed control rating ([3]; 0.030 kg/ha) | HORVW rating (Selectivity) ([12]; 0.060 kg/ha) | HORVWM rating (Selectivity) ([13]; 0.060 kg/ha)
80: POLCO weed control rating ([8]; 0.015 kg/ha) | GALAP weed control rating ([16]; 0.120 kg/ha)
1: TRZAWM rating (Selectivity) ([15]; 0.060 kg/ha)
90: ALOMY weed control rating ([1]; 0.060 kg/ha) | POLCO weed control rating ([17]; 0.240 kg/ha) | VIOAR weed control rating ([19]; 0.030 kg/ha)
15: ALOMY weed control rating ([1]; 0.015 kg/ha) | TRZAWM rating (Selectivity) ([15]; 0.240 kg/ha)
97: GALAP weed control rating ([16]; 0.060 kg/ha) | SETVI weed control rating ([18]; 0.060 kg/ha) | SETVI weed control rating ([18]; 0.120 kg/ha)
25: HORVW rating (Selectivity) ([12]; 0.030 kg/ha)
99: LAMPU weed control rating ([4]; 0.015 kg/ha) | LOLPE weed control rating ([5]; 0.030 kg/ha) | LOLPE weed control rating ([5]; 0.060 kg/ha) | LOLPE weed control rating ([5]; 0.120 kg/ha) | MATIN weed control rating ([6]; 0.030 kg/ha) | STEME weed control rating ([10]; 0.015 kg/ha) | STEME weed control rating ([10]; 0.030 kg/ha)
22: HORVWM rating (Selectivity) ([13]; 0.030 kg/ha)
40: HORVWM rating (Selectivity) ([13]; 0.120 kg/ha)
45: HORVWM rating (Selectivity) ([13]; 0.240 kg/ha)
75: GALAP weed control rating ([3]; 0.120 kg/ha)
60: GALAP weed control rating ([16]; 0.030 kg/ha) | POLCO weed control rating ([17]; 0.060 kg/ha)
5: GALAP weed control rating ([3]; 0.015 kg/ha) | HORVWM rating (Selectivity) ([13]; 0.015 kg/ha) | TRZAWM rating (Selectivity) ([15]; 0.120 kg/ha)
10: HORVW rating (Selectivity) ([12]; 0.015 kg/ha) | TRZAWK rating (Selectivity) ([14]; 0.240 kg/ha) | POLCO weed control rating ([17]; 0.030 kg/ha)
98: MATIN weed control rating ([6]; 0.015 kg/ha)
